Holding throughout (assay type): cell-based
Test [1] addresses norepinephrine transporter (NET) (Homo sapiens, UniProt P23975). As to the kind of experiment: [3H]NE uptake inhibition at the norepinephrine transporter. The note with it: for NE/5-HT ratio / NE/DA ratio: ratio of uptake Ki; for NE/5-HT ratio: NE vs 5-HT; for NE/DA ratio: NE vs DA; for Ki: read-out: [3H]NE uptake, Ki ± SE. An excerpt: (§1) These novel ligands have been tested for their binding affinity at the DAT as well as for the inhibition of reuptake of NE, 5-HT, and DA at their specific transporters.

The target of test [2] is serotonin transporter (5-HTT) (Homo sapiens, UniProt P31645). As to the kind of experiment: [3H]5-HT uptake inhibition at the serotonin transporter. To be noted: for 5-HT/DA ratio: ratio of uptake Ki, 5-HT vs DA; for Ki: read-out: [3H]5-HT uptake, Ki ± SE; for higher activity at 5-HTT vs. DAT: selectivity 5-HTT vs DAT.
serotonin transporter (5-HTT), sequence (P31645 whole entry, species assumed): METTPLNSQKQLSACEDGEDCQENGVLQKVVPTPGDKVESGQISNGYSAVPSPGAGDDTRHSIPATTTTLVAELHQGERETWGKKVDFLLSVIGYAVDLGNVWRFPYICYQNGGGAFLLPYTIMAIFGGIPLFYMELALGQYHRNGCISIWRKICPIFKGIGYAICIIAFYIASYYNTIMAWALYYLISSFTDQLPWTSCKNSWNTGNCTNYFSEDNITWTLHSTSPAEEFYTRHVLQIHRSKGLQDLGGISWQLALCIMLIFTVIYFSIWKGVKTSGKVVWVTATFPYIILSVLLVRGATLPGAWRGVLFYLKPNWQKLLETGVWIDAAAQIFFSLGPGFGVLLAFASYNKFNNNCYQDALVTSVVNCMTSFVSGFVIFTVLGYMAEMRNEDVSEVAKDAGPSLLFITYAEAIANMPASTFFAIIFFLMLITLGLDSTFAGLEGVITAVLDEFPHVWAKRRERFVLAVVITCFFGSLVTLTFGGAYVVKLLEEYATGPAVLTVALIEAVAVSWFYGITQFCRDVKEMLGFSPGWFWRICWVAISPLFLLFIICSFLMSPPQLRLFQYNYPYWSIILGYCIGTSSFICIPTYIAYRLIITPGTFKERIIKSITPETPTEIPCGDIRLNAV
Text: as §1

Test [3] concerns the target dopamine transporter (DAT) (Homo sapiens, UniProt Q01959). As to the kind of experiment: [3H]DA uptake inhibition at the dopamine transporter. The note with it: read-out: [3H]DA uptake, Ki ± SE.
Text: as §1

Molecules are shown by their SMILES.

dopamine transporter (DAT), sequence (Q01959 whole entry, species assumed): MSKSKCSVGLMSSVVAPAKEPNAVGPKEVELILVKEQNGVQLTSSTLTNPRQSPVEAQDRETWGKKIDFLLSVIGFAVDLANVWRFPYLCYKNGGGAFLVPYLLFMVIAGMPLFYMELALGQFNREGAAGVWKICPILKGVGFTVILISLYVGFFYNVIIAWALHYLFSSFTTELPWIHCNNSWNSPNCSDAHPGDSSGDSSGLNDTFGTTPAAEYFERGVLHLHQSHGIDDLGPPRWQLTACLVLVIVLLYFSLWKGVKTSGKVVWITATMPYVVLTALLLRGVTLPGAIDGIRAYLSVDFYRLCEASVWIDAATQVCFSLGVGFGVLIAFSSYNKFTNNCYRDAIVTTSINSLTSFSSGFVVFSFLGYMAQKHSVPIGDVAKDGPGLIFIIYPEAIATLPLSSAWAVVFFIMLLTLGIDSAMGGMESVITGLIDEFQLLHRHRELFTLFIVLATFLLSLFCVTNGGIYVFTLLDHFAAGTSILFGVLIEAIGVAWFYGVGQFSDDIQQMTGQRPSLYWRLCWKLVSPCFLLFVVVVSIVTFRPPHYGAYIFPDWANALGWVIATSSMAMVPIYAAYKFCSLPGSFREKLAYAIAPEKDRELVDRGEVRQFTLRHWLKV
norepinephrine transporter (NET), sequence (P23975 whole entry, species assumed): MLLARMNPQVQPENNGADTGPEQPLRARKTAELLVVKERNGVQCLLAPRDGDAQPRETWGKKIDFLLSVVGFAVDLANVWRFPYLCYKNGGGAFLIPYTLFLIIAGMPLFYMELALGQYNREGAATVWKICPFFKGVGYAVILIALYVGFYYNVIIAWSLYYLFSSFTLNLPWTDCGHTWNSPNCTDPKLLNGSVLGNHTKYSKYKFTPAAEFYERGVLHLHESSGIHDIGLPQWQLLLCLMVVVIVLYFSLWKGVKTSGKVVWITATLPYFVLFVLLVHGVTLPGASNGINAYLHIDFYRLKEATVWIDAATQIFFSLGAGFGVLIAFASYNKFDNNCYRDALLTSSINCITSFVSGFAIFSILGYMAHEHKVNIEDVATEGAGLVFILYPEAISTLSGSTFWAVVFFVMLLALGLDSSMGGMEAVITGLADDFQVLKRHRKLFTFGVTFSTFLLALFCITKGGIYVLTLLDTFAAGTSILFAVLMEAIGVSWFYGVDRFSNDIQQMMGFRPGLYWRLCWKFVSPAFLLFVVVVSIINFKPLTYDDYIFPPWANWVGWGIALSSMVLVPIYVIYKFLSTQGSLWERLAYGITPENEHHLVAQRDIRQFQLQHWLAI

Consider `COC(=O)C1C2CC3CCC1N3CC2=Cc1ccccc1` (single isomer, unassigned) [5a], for which, in test [1], the NE/5-HT ratio came out at 0.05, the NE/DA ratio came to 0.11 and the Ki was 53 ± 16.1 nM. Besides, the “Ki at the 5-HTT higher than at the NET” value in test [1] (selectivity NET vs 5-HTT) is given as 20 fold. The “Ki at the DAT higher than at the NET” value in test [1] (selectivity NET vs DAT) was 9 fold. Besides, in test [2], the 5-HT/DA ratio was 2.36 and the Ki was determined as 1140 ± 70 nM. Besides, the Ki in test [3] came to 481 ± 10.8 nM.
As to `COC(=O)C1C2CC3CCC1N3CC2=Cc1ccccc1` (single isomer, unassigned) [compound 6], the “activity at all three transporters” value in test [1] (NET, 5-HTT and DAT) is “only weakly active”. In test [1], the NE/5-HT ratio is on record as 0.2, the NE/DA ratio is 0.3 and the Ki came to 1530 ± 150 nM. Moreover, in test [2], the 5-HT/DA ratio is recorded as 1.48 and the Ki worked out at 7480 ± 250 nM. Further, the Ki in test [3] was determined as 5070 ± 310 nM.
Regarding `COC(=O)C1C2CC3CCC1N3CC2=Cc1ccc(Cl)c(Cl)c1` (stereo not shown) [5b], in test [1], the NE/5-HT ratio was found to be 50.6, the NE/DA ratio came out at 0.52 and the Ki worked out at 1000 ± 280 nM. In test [2], the 5-HT/DA ratio amounted to 0.01, the Ki amounted to 19.8 ± 0.5 nM and the “higher activity at 5-HTT vs. DAT” value is “about 100 fold”. In test [2] (selectivity 5-HTT vs NET), the “higher activity at 5-HTT vs. the NET” value is “about 50 fold”. In addition, the Ki in test [3] came out at 1920 ± 260 nM.
Consider `COC(=O)C1C2CC3CCC1N3CC2=Cc1ccc(OC)cc1` (stereo not shown) [5c], for which, in test [1], the NE/5-HT ratio was found to be 3.37, the NE/DA ratio worked out at 0.06 and the Ki amounted to 187 ± 4.6 nM. Further, in test [2], the 5-HT/DA ratio was determined as 0.02, the Ki amounted to 55.7 ± 3.8 nM and the “higher activity at 5-HTT vs. DAT” value was 50 fold. Further, the Ki in test [3] amounted to 3130 ± 160 nM.
For `COC(=O)C1C2CC3CCC1N3CC2=Cc1ccc(F)cc1` (stereo not shown) [5d], the “decrease of norepinephrine reuptake activity vs. 5a” value in test [1] (fluoro substituent, 5d vs. 5a) is recorded as “about 10 factor”. In test [1], the NE/5-HT ratio came out at 1.74, the NE/DA ratio is on record as 0.09 and the Ki was determined as 584 ± 163 nM. In addition, in test [2], the 5-HT/DA ratio is listed as 0.05 and the Ki was determined as 335 ± 45.5 nM. Besides, the Ki in test [3] is 6620 ± 460 nM.
Take `COC(=O)C1C2CC3CCC1N3CC2=Cc1cccc2ccccc12` (stereo not shown) [5e]: in test [1], the NE/5-HT ratio was determined as 44.5, the NE/DA ratio turned out to be 0.55 and the Ki is 5370 ± 580 nM. Further, in test [2], the 5-HT/DA ratio was 0.01 and the Ki was determined as 121 ± 3.4 nM. Also, the Ki in test [3] came out at 9720 ± 700 nM.
Regarding `COC(=O)C1C2CC3CCC1N3CC2=Cc1ccco1` (stereo not shown) [5f], in test [1], the NE/5-HT ratio is on record as 0.03, the NE/DA ratio is recorded as 0.05 and the Ki was determined as 111 ± 12.7 nM. For the same compound, in test [2], the 5-HT/DA ratio was 1.82 and the Ki came to 3680 ± 190 nM. For the same compound, in test [3], the Ki was determined as 2020 ± 190 nM.
As for `COC(=O)C1C2CC3CCC1N3CC2=Cc1ccoc1` (stereo not shown) [5g], in test [1], the NE/5-HT ratio is reported as 0.33, the NE/DA ratio worked out at 0.09 and the Ki stood at 164 ± 2.8 nM. Also, in test [2], the 5-HT/DA ratio is 0.26 and the Ki was 498 ± 65.5 nM. Also, in test [3], the Ki is 1880 ± 10 nM.

For the origin of these results see patent publication US6982271B1, “Tropane analogs” (Georgetown University, priority 1999, dated 2006).
